Measured values published in patent US9718813B2, “Imidazolin-5-one derivative useful as FASN inhibitors for the treatment of cancer” (Janssen Pharmaceutica, NV, priority 2013, dated 2017).

Legend:
[1] = molecular target: hFASN enzyme (full length) (Homo sapiens (Human), UniProt P49327); assay: Fatty Acid Synthase (FASN) Inhibition Scintillation Proximity Assay; format: biochemical; details: 3H-acetyl-CoA and malonyl-CoA substrates, SPA, mean if tested more than once
How it was run: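 Full-length human FASN (300 ng, in-house purified) in 100 mM KH2PO4 pH 7.5, 1 mM DTT converts 3H-acetyl-CoA plus malonyl-CoA to hydrophobic 3H-palmitate, captured by streptavidin imaging beads and read on LEADseeker at 610 nm after ≥24 h. Compounds tested 0.01–30 μM; data normalized to plate controls and fitted to 4-parameter logistic curves.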

[2] = molecular target: FASN Keto-reductase Domain (hFASN enzyme, full length) (Homo sapiens (Human), UniProt P49327); assay: Fatty Acid Synthase Keto-reductase Domain (FASN KR) Inhibition; format: biochemical; details: NADPH oxidation at 340 nm, ethyl acetoacetate substrate
FASN Keto-reductase Domain (hFASN enzyme, full length), sequence (P49327 whole entry, the tested form may be a part): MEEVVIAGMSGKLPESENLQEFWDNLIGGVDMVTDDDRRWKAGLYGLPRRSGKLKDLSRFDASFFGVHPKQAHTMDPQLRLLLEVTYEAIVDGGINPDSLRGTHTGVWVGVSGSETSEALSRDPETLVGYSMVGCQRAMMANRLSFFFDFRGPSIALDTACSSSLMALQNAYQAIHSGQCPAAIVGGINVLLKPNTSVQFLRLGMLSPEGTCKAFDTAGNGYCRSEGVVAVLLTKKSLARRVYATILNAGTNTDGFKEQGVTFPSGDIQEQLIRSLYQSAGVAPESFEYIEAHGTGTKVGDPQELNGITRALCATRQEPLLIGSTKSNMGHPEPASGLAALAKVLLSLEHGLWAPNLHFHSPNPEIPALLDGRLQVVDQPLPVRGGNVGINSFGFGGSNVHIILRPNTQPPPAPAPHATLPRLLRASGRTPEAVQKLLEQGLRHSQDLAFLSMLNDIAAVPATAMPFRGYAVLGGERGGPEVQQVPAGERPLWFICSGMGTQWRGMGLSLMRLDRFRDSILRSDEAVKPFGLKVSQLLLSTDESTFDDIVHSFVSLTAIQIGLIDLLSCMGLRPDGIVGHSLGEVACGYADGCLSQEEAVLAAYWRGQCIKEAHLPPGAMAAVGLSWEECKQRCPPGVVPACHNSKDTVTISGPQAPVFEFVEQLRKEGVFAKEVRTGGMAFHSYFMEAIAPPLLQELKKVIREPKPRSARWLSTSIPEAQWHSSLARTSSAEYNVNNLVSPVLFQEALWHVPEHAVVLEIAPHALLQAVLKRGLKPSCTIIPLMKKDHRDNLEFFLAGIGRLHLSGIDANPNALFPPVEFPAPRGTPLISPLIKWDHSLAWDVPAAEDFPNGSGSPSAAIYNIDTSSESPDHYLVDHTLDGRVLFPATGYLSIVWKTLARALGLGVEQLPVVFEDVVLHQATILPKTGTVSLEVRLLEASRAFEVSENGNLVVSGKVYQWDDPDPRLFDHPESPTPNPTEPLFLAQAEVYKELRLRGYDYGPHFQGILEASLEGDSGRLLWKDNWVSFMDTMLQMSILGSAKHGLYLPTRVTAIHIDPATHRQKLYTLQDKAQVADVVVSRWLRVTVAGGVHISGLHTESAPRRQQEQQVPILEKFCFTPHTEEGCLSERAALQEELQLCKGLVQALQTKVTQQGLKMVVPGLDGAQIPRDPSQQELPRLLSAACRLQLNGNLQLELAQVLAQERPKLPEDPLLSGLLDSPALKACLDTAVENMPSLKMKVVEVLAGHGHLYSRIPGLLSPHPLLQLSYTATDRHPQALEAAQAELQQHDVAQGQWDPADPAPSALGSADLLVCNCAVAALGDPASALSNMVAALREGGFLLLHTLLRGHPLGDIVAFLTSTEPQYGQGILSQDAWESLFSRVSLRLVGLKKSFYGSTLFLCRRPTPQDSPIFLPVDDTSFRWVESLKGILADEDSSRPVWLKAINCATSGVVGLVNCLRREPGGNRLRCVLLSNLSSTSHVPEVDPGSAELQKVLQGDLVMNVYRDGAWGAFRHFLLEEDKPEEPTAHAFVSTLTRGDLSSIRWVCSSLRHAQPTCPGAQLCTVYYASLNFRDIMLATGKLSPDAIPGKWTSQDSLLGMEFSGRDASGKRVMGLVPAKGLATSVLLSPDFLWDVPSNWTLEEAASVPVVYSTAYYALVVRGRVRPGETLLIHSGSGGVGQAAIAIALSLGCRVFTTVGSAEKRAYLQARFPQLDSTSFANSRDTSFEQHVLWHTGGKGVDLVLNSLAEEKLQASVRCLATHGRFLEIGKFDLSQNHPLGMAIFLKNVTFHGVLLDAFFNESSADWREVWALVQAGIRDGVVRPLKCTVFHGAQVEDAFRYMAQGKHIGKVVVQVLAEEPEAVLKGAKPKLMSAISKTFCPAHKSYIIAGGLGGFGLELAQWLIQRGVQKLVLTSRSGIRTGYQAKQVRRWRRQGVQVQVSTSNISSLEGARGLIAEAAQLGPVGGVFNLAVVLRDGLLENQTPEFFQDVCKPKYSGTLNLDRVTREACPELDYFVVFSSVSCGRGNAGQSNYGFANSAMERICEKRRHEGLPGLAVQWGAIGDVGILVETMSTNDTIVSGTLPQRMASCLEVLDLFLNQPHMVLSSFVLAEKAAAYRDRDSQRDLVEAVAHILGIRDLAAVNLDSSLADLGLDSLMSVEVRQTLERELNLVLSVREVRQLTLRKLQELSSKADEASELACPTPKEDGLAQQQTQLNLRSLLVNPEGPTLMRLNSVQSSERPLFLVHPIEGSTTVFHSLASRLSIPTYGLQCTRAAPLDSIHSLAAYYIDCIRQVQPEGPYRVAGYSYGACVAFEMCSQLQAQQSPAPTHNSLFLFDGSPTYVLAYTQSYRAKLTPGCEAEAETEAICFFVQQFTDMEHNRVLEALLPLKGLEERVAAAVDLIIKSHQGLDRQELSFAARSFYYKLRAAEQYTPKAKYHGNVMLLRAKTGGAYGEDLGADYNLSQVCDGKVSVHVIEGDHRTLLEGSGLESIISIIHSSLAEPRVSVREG
Method: After 20 minutes incubation at room temperature the plate was measured again (T2).
The decrease in absorbance was calculated as (Absorbance before incubation T1)−(Absorbance following incubation T2).
Raw data generated by the instrument were normalized to % Controlmin values, which were calculated as: % Controlmin=100*(x−mLC)/(mHC−mLC)
where mLC and mHC were the means of the low control wells and high control wells on the plate, after manual exclusion of outliers. A plot of Controlmin versus test compound concentration was fitted to a 4-parameter logistic curve using a non-linear least squares regression method.

hFASN enzyme (full length), sequence (P49327 whole entry): as the sequence (P49327 whole entry, the tested form may be a part) above

| SMILES | Human FASN pIC50 [1] | FASN Keto-reductase Domain pIC50 [2] |
| --- | --- | --- |
| CC1(C)N=C(c2ccc(-c3ccc4cccnc4c3)cc2F)N(C[C@@H]2CCN(C(=O)C3CC3)C2)C1=O [Compound 49, (R)-1-((1-(cyclopropanecarbonyl)pyrrolidin-3-yl)methyl)-2-(2-fluoro-4-(quinolin-7-yl)phenyl)-4,4-dimethyl-1H-imidazol-5(4H)-one] | 7.34 | 7.20 |
| CC1(C)N=C(c2ccc(-c3nc4ccccc4o3)cc2F)N(CC2CN(C(=O)C3CC3)C2)C1=O [Compound 52, 2-(4-(benzo[d]oxazol-2-yl)-2-fluorophenyl)-1-((1-(cyclopropanecarbonyl)azetidin-3-yl)methyl)-4,4-dimethyl-1H-imidazol-5(4H)-one] | 6.25 | 5.77 |
| CC1(C)N=C(c2ccc(-c3ccc4cc(F)ccc4c3)cc2F)N(CC2CN(C(=O)C3CC3)C2)C1=O [Compound 54, 1-((1-(cyclopropanecarbonyl)azetidin-3-yl)methyl)-2-(2-fluoro-4-(6-fluoronaphthalen-2-yl)phenyl)-4,4-dimethyl-1H-imidazol-5(4H)-one] | 7.55 | 6.55 |
| CC1(C)N=C(c2ccc(-c3ccc4cccc(F)c4c3)cc2F)N(CC2CN(C(=O)C3CC3)C2)C1=O [Compound 55, 1-((1-(cyclopropanecarbonyl)azetidin-3-yl)methyl)-2-(2-fluoro-4-(8-fluoronaphthalen-2-yl)phenyl)-4,4-dimethyl-1H-imidazol-5(4H)-one] | 7.46 | 6.60 |
| CC1(C)N=C(c2ccc(-c3ccc4cnccc4c3)cc2F)N(CC2CN(C(=O)C3CC3)C2)C1=O [Compound 56, 1-((1-(cyclopropanecarbonyl)azetidin-3-yl)methyl)-2-(2-fluoro-4-(isoquinolin-6-yl)phenyl)-4,4-dimethyl-1H-imidazol-5(4H)-one] | 7.17 | 6.33 |
| CC1(C)N=C(c2ccc(-c3n[nH]c4ccccc34)cc2F)N(C[C@@H]2CCN(C(=O)C3CC3)C2)C1=O [Compound 57, (R)-1-((1-(cyclopropanecarbonyl)pyrrolidin-3-yl)methyl)-2-(2-fluoro-4-(1H-indazol-3-yl)phenyl)-4,4-dimethyl-1H-imidazol-5(4H)-one] | 6.48 | 5.56 |
| CC1(C)N=C(c2ccc(-c3c[nH]c4ccccc34)cc2F)N(CC2CN(C(=O)C3CC3)C2)C1=O [Compound 62, 1-((1-(cyclopropanecarbonyl)azetidin-3-yl)methyl)-2-(2-fluoro-4-(1H-indol-3-yl)phenyl)-4,4-dimethyl-1H-imidazol-5(4H)-one] | 6.69 | 6.26 |
| CC1(C)N=C(c2ccc(-c3c[nH]c4ccccc34)cc2F)N(C[C@@H]2CCN(C(=O)C3CC3)C2)C1=O [Compound 63, (R)-1-((1-(cyclopropanecarbonyl)pyrrolidin-3-yl)methyl)-2-(2-fluoro-4-(1H-indol-3-yl)phenyl)-4,4-dimethyl-1H-imidazol-5(4H)-one] | 7.16 | 6.73 |
| CC1(C)N=C(c2ccc(-c3c[nH]c4ccccc34)cc2)N(C[C@@H]2CCN(C(=O)C3CC3)C2)C1=O [Compound 65, (R)-2-(4-(1H-indol-3-yl)phenyl)-1-((1-(cyclopropanecarbonyl)pyrrolidin-3-yl)methyl)-4,4-dimethyl-1H-imidazol-5(4H)-one] | 6.64 | 6.14 |
| CC1(C(=O)N2CC(CN3C(=O)C(C)(C)N=C3c3ccc(-c4ccc5cc(F)ccc5c4)cc3F)C2)CC1 [Compound 72, 2-(2-fluoro-4-(6-fluoronaphthalen-2-yl)phenyl)-4,4-dimethyl-1-((1-(1-methylcyclopropanecarbonyl)azetidin-3-yl)methyl)-1H-imidazol-5(4H)-one] | 7.45 | 7.23 |
| Cn1ncc2cc(-c3ccc(C4=NC(C)(C)C(=O)N4C[C@@H]4CCN(C(=O)C5(C)CC5)C4)c(F)c3)ccc21 [Compound 73, (R)-2-(2-fluoro-4-(1-methyl-1H-indazol-5-yl)phenyl)-4,4-dimethyl-1-((1-(1-methylcyclopropanecarbonyl)pyrrolidin-3-yl)methyl)-1H-imidazol-5(4H)-one] | 7.18 | 7.17 |
| Cn1cc(-c2ccc(-c3ccc(C4=NC(C)(C)C(=O)N4C[C@@H]4CCN(C(=O)C5(C)CC5)C4)c(F)c3)cc2)cn1 [Compound 74, (R)-2-(3-fluoro-4′-(1-methyl-1H-pyrazol-4-yl)-[1,1′-biphenyl]-4-yl)-4,4-dimethyl-1-((1-(1-methylcyclopropanecarbonyl)pyrrolidin-3-yl)methyl)-1H-imidazol-5(4H)-one] | 7.26 | 7.38 |
| Cc1cc(-c2ccc3c(cnn3C)c2)ccc1C1=NC(C)(C)C(=O)N1CC1CN(C(=O)C2(C)CC2)C1 [Compound 77, 4,4-dimethyl-2-(2-methyl-4-(1-methyl-1H-indazol-5-yl)phenyl)-1-((1-(1-methylcyclopropanecarbonyl)azetidin-3-yl)methyl)-1H-imidazol-5(4H)-one] | 6.82 | 6.44 |
| Cn1ncc2cc(-c3ccc(C4=NC(C)(C)C(=O)N4CC4CN(C(=O)C5(O)CC5)C4)c(F)c3)ccc21 [Compound 78, 2-(2-fluoro-4-(1-methyl-1H-indazol-5-yl)phenyl)-1-((1-(1-hydroxycyclopropanecarbonyl)azetidin-3-yl)methyl)-4,4-dimethyl-1H-imidazol-5(4H)-one] | 6.61 | 6.19 |
| CC1(C)N=C(c2ccc(-c3ccc4cc(F)ccc4c3)cc2F)N(CC2CN(C(=O)C3(O)CC3)C2)C1=O [Compound 79, 2-(2-fluoro-4-(6-fluoronaphthalen-2-yl)phenyl)-1-((1-(1-hydroxycyclopropanecarbonyl)azetidin-3-yl)methyl)-4,4-dimethyl-1H-imidazol-5(4H)-one] | 7.52 | 6.92 |
| Cc1cc(-c2ccc3c(cnn3C)c2)ccc1C1=NC(C)(C)C(=O)N1C[C@@H]1CCN(C(=O)C2(C)CC2)C1 [Compound 80, (R)-4,4-dimethyl-2-(2-methyl-4-(1-methyl-1H-indazol-5-yl)phenyl)-1-((1-(1-methylcyclopropanecarbonyl)pyrrolidin-3-yl)methyl)-1H-imidazol-5(4H)-one] | 7.20 | 6.96 |
| Cn1cc(-c2ccc(-c3ccc(C4=NC(C)(C)C(=O)N4CC4CN(C(=O)C5(O)CC5)C4)c(F)c3)cc2)cn1 [Compound 81, 2-(3-fluoro-4′-(1-methyl-1H-pyrazol-4-yl)-[1,1′-biphenyl]-4-yl)-1-((1-(1-hydroxycyclopropanecarbonyl)azetidin-3-yl)methyl)-4,4-dimethyl-1H-imidazol-5(4H)-one] | 6.28 | 6.10 |
| Cc1cc(-c2ccc3cc(F)ccc3c2)ccc1C1=NC(C)(C)C(=O)N1CC1CN(C(=O)C2(C)CC2)C1 [Compound 82, 2-(4-(6-fluoronaphthalen-2-yl)-2-methylphenyl)-4,4-dimethyl-1-((1-(1-methylcyclopropanecarbonyl)azetidin-3-yl)methyl)-1H-imidazol-5(4H)-one] | 7.47 | 7.30 |
| Cc1cc(-c2ccc3c(c2)ncn3C)ccc1C1=NC(C)(C)C(=O)N1CC1CN(C(=O)C2(C)CC2)C1 [Compound 83, 4,4-dimethyl-2-(2-methyl-4-(1-methyl-1H-benzo[d]imidazol-5-yl)phenyl)-1-((1-(1-methylcyclopropanecarbonyl)azetidin-3-yl)methyl)-1H-imidazol-5(4H)-one] | 6.99 | 6.76 |
| Cc1cc(-c2ccc(-c3cnn(C)c3)cc2)ccc1C1=NC(C)(C)C(=O)N1C[C@@H]1CCN(C(=O)C2(C)CC2)C1 [Compound 84, (R)-4,4-dimethyl-2-(3-methyl-4′-(1-methyl-1H-pyrazol-4-yl)-[1,1′-biphenyl]-4-yl)-1-((1-(1-methylcyclopropanecarbonyl)pyrrolidin-3-yl)methyl)-1H-imidazol-5(4H)-one] | 7.27 | 7.27 |
| Cc1cc(-c2ccc3c(c2)ncn3C)ccc1C1=NC(C)(C)C(=O)N1C[C@@H]1CCN(C(=O)C2(C)CC2)C1 [Compound 85, (R)-4,4-dimethyl-2-(2-methyl-4-(1-methyl-1H-benzo[d]imidazol-5-yl)phenyl)-1-((1-(1-methylcyclopropanecarbonyl)pyrrolidin-3-yl)methyl)-1H-imidazol-5(4H)-one] | 7.10 | 6.80 |
| Cc1cc(-c2ccc3cc(F)ccc3c2)ccc1C1=NC(C)(C)C(=O)N1C[C@@H]1CCN(C(=O)C2(C)CC2)C1 [Compound 86, (R)-2-(4-(6-fluoronaphthalen-2-yl)-2-methylphenyl)-4,4-dimethyl-1-((1-(1-methylcyclopropanecarbonyl)pyrrolidin-3-yl)methyl)-1H-imidazol-5(4H)-one] | 7.37 | 7.60 |
